Laboratory results reported in patent US10137162B1, “Gastroprotective extracts of Sonchus oleraceus L” (KING SAUD UNIVERSITY, priority 2018, dated 2018).

Key:
[1] = test system: ulcerative colitis induced by acetic acid; assay: acetic acid-induced ulcerative colitis; format: in vivo, Male Wistar rats; conditions: 0.1 mg/kg oral once daily, 5 days
Procedure: All medications were administered orally, once daily for 5 consecutive days and the first dose was administered about 2 h after ulcerative colitis induction by about 2 mL (4%, v/v) acetic acid in saline. Ulcer indices (mm) were calculated as the sum of the total length of long ulcers and petechial lesions in each group of rats divided by its number. All values were expressed as mean+S.D. Comparisons between means were carried out using a one-way ANOVA test followed by the Tukey HSD test using SPSS, version 14 (SPSS, Chicago, Ill.). Differences at p<0.05 were considered statistically significant.

[2] = test system: absolute ethanol-induced ulcer; assay: absolute ethanol-induced ulcer model (gastroprotective activity); format: in vivo, Male Wistar rats; conditions: 20 mg/kg oral
Procedure: The absolute ethanol-induced ulcer model was used for evaluation of gastroprotective activity. Groups of 6 Male Wistar rats were used. Treated groups received either total alcohol extracts (SA or SR) at doses of about 250 mg/kg or about 500 mg/kg. […] A treatment group received Omeprazole (about 20 mg/kg) and a control group received water (about 5 mL/kg). All treatments were administered orally to all groups. […] After one hour all rats were sacrificed, the stomachs were rapidly removed, opened along their greater curvature, and gently rinsed under running tap water. The number and severity of ulcers were visually counted and the ulcer index was calculated. Ulcer indices (mm) were calculated as the sum of the total length of long ulcers and petechial lesions in each group of rats divided by its number. Percent protection was determined according to the following formula: [formula] All values were expressed as mean+S.D. Comparisons between means were carried out using a one-way ANOVA test followed by the Tukey HSD test using SPSS, version 14 (SPSS, Chicago, Ill.). Differences at p<0.05 were considered statistically significant.

| SMILES | % protection [1] [%] | Score ([2]; 30 min before ethanol) | % protection ([2]; ethanol-induced ulcer) [%] |
| --- | --- | --- | --- |
| C[C@@H]1C[C@H]2[C@@H]3CCC4=CC(=O)C=C[C@]4(C)[C@@]3(F)[C@@H](O)C[C@]2(C)[C@@]1(O)C(=O)CO [Dexamethasone, dexamethasone] | 66.36 | – | – |
| COc1ccc2[nH]c([S+]([O-])Cc3ncc(C)c(OC)c3C)nc2c1 (stereo not drawn) [Omeprazole] | – | 2.50 | 45.83 |
